Data on nine compounds can be found in patent US5523460A, “4-fluorobiphenyl derivatives” (Fujirebio Inc., priority 1993, dated 1996).

One assay has as its target T1, HMG-CoA Reductase (Rattus norvegicus, UniProt P51639).
T1 sequence (P51639 1-887): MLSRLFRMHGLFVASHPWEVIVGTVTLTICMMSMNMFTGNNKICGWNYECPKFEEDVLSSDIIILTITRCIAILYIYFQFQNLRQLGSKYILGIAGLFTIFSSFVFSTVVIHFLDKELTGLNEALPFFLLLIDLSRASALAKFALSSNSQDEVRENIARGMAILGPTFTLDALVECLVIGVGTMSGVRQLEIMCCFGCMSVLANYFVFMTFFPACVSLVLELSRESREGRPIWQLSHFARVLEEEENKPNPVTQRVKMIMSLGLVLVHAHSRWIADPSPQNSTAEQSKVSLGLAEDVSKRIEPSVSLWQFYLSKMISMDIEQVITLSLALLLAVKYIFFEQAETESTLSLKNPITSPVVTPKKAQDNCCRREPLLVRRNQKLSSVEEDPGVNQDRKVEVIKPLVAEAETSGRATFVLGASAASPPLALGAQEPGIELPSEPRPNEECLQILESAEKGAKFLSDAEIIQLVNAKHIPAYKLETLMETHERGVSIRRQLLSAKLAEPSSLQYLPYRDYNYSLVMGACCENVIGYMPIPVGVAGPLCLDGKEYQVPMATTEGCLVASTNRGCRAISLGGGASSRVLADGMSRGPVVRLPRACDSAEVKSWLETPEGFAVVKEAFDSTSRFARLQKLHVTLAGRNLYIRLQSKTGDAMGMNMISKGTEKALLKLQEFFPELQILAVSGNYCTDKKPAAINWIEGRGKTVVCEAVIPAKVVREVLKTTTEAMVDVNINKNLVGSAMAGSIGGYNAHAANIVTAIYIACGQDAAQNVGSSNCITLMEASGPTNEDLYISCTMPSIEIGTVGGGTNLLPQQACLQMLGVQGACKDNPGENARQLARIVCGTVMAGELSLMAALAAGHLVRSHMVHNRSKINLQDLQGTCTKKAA
The experiment in a line: biochemical. Particulars: method of J. Biol. Chem. Vol. 234, page 2835 (1959); read-out: HMG-CoA Reductase Inhibitory Activity IC50. Here is the method: Test 1Determination of Inhibitory Activity on HMG-CoA Reductase
The inhibitory effect on HMG-CoA Reductase of each of representative examples of the 4-fluorobiphenyl derivatives prepared in the above-discussed examples was determined in accordance with the method described in Journal of Biological Chemistry (J. Biol. Chem.) Vol. 234, page 2835 (1959), and IC50 values were obtained.

The test system of a further assay is biosynthesis of sterol. The experiment in a line: Determination of Inhibition of Sterol Synthesis (liver, after oral administration to rats). It is filed as in vivo, SD rats. Particulars: Rattus norvegicus, 2 h, read-out: Inhibition of Sterol Synthesis. Here is the method:
Test 2 Determination of Inhibition of Sterol Synthesis
Representative compounds (0.3 mg/5ml/kg) suspended in a 5% arabic gum solution were orally given to SD rats weighing 150 to 200 g. One hour later, ^14 C-acetic acid (100 μCi/kg) was intraperitoneally injected, and furthermore one hour later, liver was removed to determine the inhibitory activity of each of the compounds on the biosynthesis of sterol in accordance with the method described in European Journal of Biochemistry (Eur. J. Biochem.) Vol.77, page 31 (1977).

pIC50: −log10 of the molar value. Like-named read-outs stand apart in the source and are kept apart here.

For `COc1c(Cl)cc(C(C)C)c(/C=C/C(O)CC(O)CC(=O)O)c1-c1ccc(F)cc1` (centres unmarked), at HMG-CoA Reductase, the pIC50 was 7.73. Further, the inhibition in vivo at 0.3 mg/kg in the assay with biosynthesis of sterol (po) came to 71%.
For `COc1c(OCCO)cc(C(C)C)c(/C=C/C(O)CC(O)CC(=O)O)c1-c1ccc(F)cc1` (centres unmarked), the pIC50 at HMG-CoA Reductase is 7.69. Further, in the assay with biosynthesis of sterol (po), the inhibition in vivo at 0.3 mg/kg came out at 61%.
On the same counts, the results for `COCCOCCOc1cc(C(C)C)c(/C=C/C(O)CC(O)CC(=O)O)c(-c2ccc(F)cc2)c1OC` (centres unmarked) are 7.58 and 62%.
On to `COc1c(C)cc(C(C)C)c(/C=C/C(O)CC(O)CC(=O)O)c1-c1ccc(F)cc1` (centres unmarked), for which the pIC50 at HMG-CoA Reductase is 7.78. In the assay on biosynthesis of sterol (po), the inhibition in vivo at 0.3 mg/kg came out at 65%.
With `COCCOc1cc(C(C)C)c(/C=C/C(O)CC(O)CC(=O)O)c(-c2ccc(F)cc2)c1OC` (centres unmarked), the pIC50 at HMG-CoA Reductase is 7.79. In the assay on biosynthesis of sterol (po), the inhibition in vivo at 0.3 mg/kg stood at 71%.
Take `CCC(C)(C)C(=O)O[C@H]1C[C@@H](C)C=C2C=C[C@H](C)[C@H](CC[C@@H]3C[C@@H](O)CC(=O)O3)[C@H]21` [Simvastatin, reference compound]: the inhibition in vivo at 0.3 mg/kg in the assay with biosynthesis of sterol (0.3 mg/5ml/kg oral in 5% arabic gum, SD rats, 14C-acetic acid (100 μCi/kg) i.p. 1 h later, liver removed 1 h after that) is 24%.
Consider `COCCOc1c(OC)cc(C(C)C)c(/C=C/C(O)CC(O)CC(=O)O)c1-c1ccc(F)cc1` (centres unmarked), for which the pIC50 on HMG-CoA Reductase is 7.59. The inhibition in vivo at 0.3 mg/kg in the assay on biosynthesis of sterol (po) came out at 60%.
With `COc1cc(C(C)C)c(/C=C/C(O)CC(O)CC(=O)O)c(-c2ccc(F)cc2)c1OC` (centres unmarked), the pIC50 at HMG-CoA Reductase is 8.27. In addition, the inhibition in vivo at 0.3 mg/kg in the assay on biosynthesis of sterol (po) was 71%.
In the case of `COCCOCCOc1c(OC)cc(C(C)C)c(/C=C/C(O)CC(O)CC(=O)O)c1-c1ccc(F)cc1` (centres unmarked), on HMG-CoA Reductase, the pIC50 was 8.03. Besides, the inhibition in vivo at 0.3 mg/kg in the assay on biosynthesis of sterol (po) stood at 69%.
